# Experimental data: patent US7825068B2, “Heterocyclylethylcarboxamide derivatives” (Bayer Cropscience AG, priority 2005, dated 2010)
# Tests used:
# [1] = system: Pyrenophora teres; test: In vivo test on Pyrenophora teres (preventive spray on barley plants); settings: 330 ppm; comparison compounds of WO 2004/074280
# Description: The active ingredient tested is prepared by potter homogenisation in a concentrated suspension type formulation at 100 g/l. […] Barley plants (Express variety) in starter cups, sown on a 50/50 peat soil-pozzolana substrate and grown at 12° C., are treated at the 1-leaf stage (10 cm tall) by spraying with the aqueous suspension described above. Plants, used as controls, are treated with an aqueous solution not containing the active material. After 24 hours, the plants are contaminated by spraying them with an aqueous suspension of Pyrenophora teres spores (12,000 spores per ml). The spores are collected from a 12-day-old culture. The contaminated barley plants are incubated for 24 hours at about 20° C. and at 100% relative humidity, and then for 12 days at 80% relative humidity. Grading is carried out 12 days after the contamination, in comparison with the control plants.
# [2] = system: Alternaria brassicae; test: In vivo test on Alternaria brassicae (preventive spray on radish plants); settings: for efficacy against Alternaria brassicae: 330 ppm, comparison compounds of WO 2004/074280
# Description: The active ingredient tested is prepared by potter homogenisation in a concentrated suspension type formulation at 100 g/l. […] Radish plants (Pernot variety) in starter cups, sown on a 50/50 peat soil-pozzolana substrate and grown at 18-20° C., are treated at the cotyledon stage by spraying with the aqueous suspension described above. Plants, used as controls, are treated with an aqueous solution not containing the active material. After 24 hours, the plants are contaminated by spraying them with an aqueous suspension of Alternaria brassicae spores (40,000 spores per cm^3). The spores are collected from a 12-13-day-old culture. The contaminated radish plants are incubated for 6-7 days at about 18° C., under a humid atmosphere. Grading is carried out 6 to 7 days after the contamination, in comparison with the control plants.
Structure (SMILES),efficacy against Pyrenophora teres [1],efficacy against Alternaria brassicae [2],"protection (good (at least 50%) to total) ([2]; dose of 110 ppm, radish plants (Pernot variety), grading 6 to 7 days after contamination, in comparison with control plants)"
"Cc1cc(C(=O)NCCc2nc(F)c(F)cc2F)c(C)o1 [Compound B17, 2,5-dimethyl-N-[2-(3,5,6-trifluoropyridin-2-yl)ethyl]-3-furamide]",no efficacy,no efficacy,
"CSc1sc(C(=O)NCCc2ncc(C(F)(F)F)cc2Cl)c(I)c1S(=O)(=O)C(C)C [Compound C10, N-{2-[3-chloro-5-(trifluoromethyl)pyridin-2-yl]ethyl}-3-iodo-4-(isopropylsulfonyl)-5-(methylthio)thiophene-2-carboxamide]",no efficacy,no efficacy,
"Cn1cccc1C(=O)NCCc1ncc(C(F)(F)F)cc1Cl [Compound F1, N-{2-[3-chloro-5-(trifluoromethyl)pyridin-2-yl]ethyl}-1-methyl-1H-pyrrole-2-carboxamide]",no efficacy,no efficacy,
"Cc1nc(-c2ccccc2)sc1C(=O)NCCc1ncc(C(F)(F)F)cc1Cl [Compound H3, N-{2-[3-chloro-5-(trifluoromethyl)pyridin-2-yl]ethyl}-4-methyl-2-phenyl-1,3-thiazole-5-carboxamide]",no efficacy,no efficacy,
"Cc1c(C(=O)NCCc2ncc(C(F)(F)F)cc2Cl)cnn1-c1ccccc1 [Compound J9, N-{2-[3-chloro-5-(trifluoromethyl)pyridin-2-yl]ethyl}-5-methyl-1-phenyl-1H-pyrazole-4-carboxamide]",no efficacy,no efficacy,
Cc1cc(C(=O)NCCc2cn(C)nc2C(F)(F)F)c(C(F)(F)F)o1 [Compound J-3],,,at least 50%
"Cc1onc(-c2ccccc2)c1C(=O)NCCc1ncc(C(F)(F)F)cc1Cl [Compound M3, N-{2-[3-chloro-5-(trifluoromethyl)pyridin-2-yl]ethyl}-5-methyl-3-phenylisoxazole-4-carboxamide]",no efficacy,no efficacy,
"O=C(NCCc1ccc(Cl)cn1)c1cccnc1Cl [Compound R32, 2-chloro-N-[2-(5-chloropyridin-2-yl)ethyl]nicotinamide]",no efficacy,no efficacy,
"O=C(NCCc1ncc(C(F)(F)F)cc1Cl)C1CCN(C(=O)OCc2ccccc2)CC1 [Compound T1, benzyl 4-[({2-[3-chloro-5-(trifluoromethyl)pyridin-2-yl]ethyl}amino)carbonyl]piperidine-1-carboxylate]",no efficacy,no efficacy,
"CC1=C(C(=O)NCCc2ncc(Cl)cc2F)SCCO1 [Compound V9, N-[2-(5-chloro-3-fluoropyridin-2-yl)ethyl]-2-methyl-5,6-dihydro-1,4-oxathiine-3-carboxamide]",no efficacy,no efficacy,
"CC1=C(C(=O)NCCc2nc(Cl)ccc2Cl)SCCO1 [Compound V10, N-[2-(3,6-dichloropyridin-2-yl)ethyl]-2-methyl-5,6-dihydro-1,4-oxathiine-3-carboxamide]",no efficacy,no efficacy,
